Results as given in PMC5358875 (Journal of the American Chemical Society, 2017).

How the values were obtained:
TNKS2 ARC4 [1] = target: T1, TNKS2 ARC4 (Homo sapiens, UniProt Q9H2K2); test: Direct fluorescence polarization, TNKS2 ARC4; assay type: binding; conditions: TAMRA-labeled peptides; n.d. = not detectable; read-out: Kd TNKS2 ARC4 (Direct FP)
T1 construct: GST (cleaved yes); made in house; host or cells: E. coli C41(DE3)
T1 sequence (Q9H2K2 488-649): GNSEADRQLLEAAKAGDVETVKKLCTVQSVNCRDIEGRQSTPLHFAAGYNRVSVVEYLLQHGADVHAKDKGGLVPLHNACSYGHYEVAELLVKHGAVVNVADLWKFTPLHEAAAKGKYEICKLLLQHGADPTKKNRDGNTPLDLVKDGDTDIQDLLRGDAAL
Procedure: Fluorescence polarization (FP) assays were performed in 96-well half area black microplates (Corning) on a CLARIOstar microplate reader (BMG labtech) using excitation filter 540–20 nm, dichroic mirror LP 566 nm, and emission filter 590–20 nm. All peptides were dissolved in water as stock solutions. For direct FP assays, the stock concentrations of the TAMRA-labeled peptides were determined based on the 5-TAMRA absorbance at 556 nm (extinction coefficient ε = 89,000 M^–1 cm^–1) measured on a NanoDrop 2000 (Thermo Scientific) and verified by amino acid analysis (Department of Biochemistry, University of Cambridge). TNKS2 ARC4 (488–649) or TNKS1 ARC2–3 (315–662) was diluted 2-fold serially in the assay buffer (50 mM HEPES pH 7.5, 300 mM NaCl, 2 mM DTT, 0.05% (v/v) Tween 20) for a 12-point titration curve in triplicate. The diluted TAMRA-labeled peptide (20 nM, 50 μL) was mixed with the serially diluted TNKS2 ARC4 or TNKS1 ARC2–3 (40–0 μM, 50 μL) in each well and incubated for 30 min at 25 °C before the measurement. Data were analyzed on GraphPad Prism 5.0, and the dissociation constant, Kd, was determined using the following equation assuming the ratio between the concentration of the bound and that of the total TAMRA-labeled peptide is proportional to the fluorescence polarization [drawing 1] where FP is the fluorescence polarization, B is the minimum FP, T is the maximum FP, L0 is the total concentration of TAMRA-labeled peptide, P0 is the total concentration of protein, and Kd is the dissociation constant.

AspN protease = target: T2, AspN protease (Elizabethkingia meningoseptica, UniProt Q47899); test: in vitro; conditions: isolated enzyme
T2 sequence (Q47899 92-443): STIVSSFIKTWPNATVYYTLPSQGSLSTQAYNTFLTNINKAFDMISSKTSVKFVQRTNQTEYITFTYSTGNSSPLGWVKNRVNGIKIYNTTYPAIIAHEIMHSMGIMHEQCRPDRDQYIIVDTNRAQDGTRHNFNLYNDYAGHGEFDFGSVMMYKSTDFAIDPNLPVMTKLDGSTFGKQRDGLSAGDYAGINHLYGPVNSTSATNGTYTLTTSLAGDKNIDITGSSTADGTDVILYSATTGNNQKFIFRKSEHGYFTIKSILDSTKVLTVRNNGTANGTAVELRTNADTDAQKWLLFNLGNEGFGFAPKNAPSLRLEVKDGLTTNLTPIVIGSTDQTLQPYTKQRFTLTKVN

TNKS1 ARC2-3 = target: T3, TNKS1 ARC2-3 (Homo sapiens, UniProt O95271); test: Isothermal titration calorimetry, TNKS1 ARC2-3; assay type: binding; conditions: unlabeled peptides and Axin proteins
T3 construct: His6 (cleaved yes); made in house; host or cells: E. coli C41(DE3)
T3 sequence (O95271 315-662): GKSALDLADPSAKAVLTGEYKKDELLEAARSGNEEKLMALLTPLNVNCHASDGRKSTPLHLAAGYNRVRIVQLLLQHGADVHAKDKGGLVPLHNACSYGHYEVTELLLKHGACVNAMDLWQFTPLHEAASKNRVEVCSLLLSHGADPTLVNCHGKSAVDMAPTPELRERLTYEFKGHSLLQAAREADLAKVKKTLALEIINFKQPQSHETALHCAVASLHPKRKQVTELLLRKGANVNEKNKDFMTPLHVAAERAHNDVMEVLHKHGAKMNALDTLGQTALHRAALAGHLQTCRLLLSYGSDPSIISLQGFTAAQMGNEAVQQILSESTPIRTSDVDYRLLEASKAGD
Procedure: (§1) All ITC experiments were performed on a MicroCal iTC200 (GE Healthcare) at 25 °C. TNKS2 ARC4 (488–649), TNKS1 ARC2–3 (315–662), and Axin1 fragments were dialyzed overnight in PBS and 0.5 mM TCEP. Unlabeled peptides were used in the experiments. The peptide was diluted from the stock solution using the same dialysis buffer, and the effect of buffer dilution was accounted for when preparing TNKS samples. TNKS2 ARC4 (160–280 μM) or TNKS1 ARC2–3 (60–150 μM) was titrated into the sample cell containing the peptide (5–15 μM) or Axin1 fragments (8–12 μM) with an initial injection of 0.2 μL over 0.4 s followed by 19 injections of 2 μL over 4 s with a spacing of 60 s, except for TNKS2 ARC4 and Axin1 fragments for which the spacing was 70 s. Control experiments were performed using the same settings as above except that the cell was filled with dialysis buffer. Data were fitted with nonlinear regression using a one-site binding model from Origin 7.0 (MicroCal, Inc.).[90]

TNKS2 ARC4 [2] = target: T1, TNKS2 ARC4; test: Isothermal titration calorimetry, TNKS2 ARC4; assay type: binding; conditions: unlabeled peptides and Axin proteins
Procedure: as §1

[3] = tested on: Wnt-activated HEK 293T cells; test: TOPFLASH dual-luciferase reporter assay; assay type: cell-based; conditions: unlabeled peptides
Procedure: A dual-luciferase reporter (DLR) assay in Wnt-activated HEK 293T cells was used to determine the ability of the peptides to modulate β-catenin levels and suppress Wnt transcription. […] Treatment of HEK 293T cells with an increasing concentration of unlabeled peptide cp4n2m3c-Antp (containing the penetratin sequence on the linker) led to a dose-dependent decrease in Wnt pathway reporter activity with an IC50 around 50 μM (Figure 8). […] Moreover, treatment with non-cell-penetrating peptides pep1 or cp4n2m3c had no effect on Wnt reporter activity, nor did treatment with cp4n1m3c-Antp (a cell-penetrating version of the non-binding peptide cp4n1m3c) (Table S2), thereby satisfying these specificity controls.
HEK 293T were grown in Dulbecco’s Modified Eagles Medium (DMEM) supplemented with 10% fetal calf serum. Wnt pathway activity was induced by treating cells with 20 mM LiCl (or KCl as control) or conditioned media obtained from L-cells expressing Wnt3A for 6 h. […]
For TOPFLASH reporter assays, 100 ng of TOPFLASH plasmid and 10 ng of CMV-Renilla plasmid (as internal control) were used to transfect cells in 24-well plates. […] Relative luciferase values were obtained from triplicate samples (from two independent experiments) by dividing the firefly luciferase values (from TOPFLASH) by the Renilla luciferase values (from CMV-renilla), and standard deviations were calculated.

Compound CN(C)c1ccc2c(c1)Oc1cc(N(C)C)ccc1C21OC(=O)c2cc(C(=O)NCCCCCC(=O)N[C@@H](CCCNC(=N)N)C(=O)N[C@@H](CCC(=O)O)C(=O)N[C@H]3CCn4cc(nn4)CCCc4cn(nn4)CC[C@@H](C(=O)N[C@@H](CCC(=O)O)C(N)=O)NC(=O)CNC(=O)[C@H](CC(=O)O)NC(=O)CNC3=O)ccc21 [T-cp4n2m3] has a Kd (TNKS2 ARC4 [1]) of 0.6 ± 0.01 µM and a remaining at 4.5 h, 400 μM (AspN protease) of ~100%.
Ac-REAGDGEE-NH2 [pep1] was tested, and the “Stoichiometry (ITC), TNKS1 ARC2-3” value (TNKS1 ARC2-3) was 0.9 ± 0.01, the Kd (TNKS1 ARC2-3; 25 °C, read-out: Kd (nM) to TNKS1 ARC2-3 (ITC)) was 290 ± 30 nM and the “Stoichiometry (ITC), TNKS2 ARC4” value (TNKS2 ARC4 [2]) was 1.0 ± 0.004. For the same compound, the “effect on Wnt reporter activity” value [3] was “no effect”.
